Data taken from patent US20240132464A1, “HETEROCYCLIC COMPOUNDS AS E3 LIGASE INHIBITORS” (Accutar Biotechnology Inc., priority 2022, published 2024).
pIC50: −log10 of the molar value.

Target: T1, GID4 (Uniprot ID: Q81VV7, residues 124-289) (Homo sapiens, UniProt Q8IVV7)
T1 construct: GID4 (Uniprot ID: Q81VV7, residues 124-289)
T1 sequence (Q8IVV7 124-289): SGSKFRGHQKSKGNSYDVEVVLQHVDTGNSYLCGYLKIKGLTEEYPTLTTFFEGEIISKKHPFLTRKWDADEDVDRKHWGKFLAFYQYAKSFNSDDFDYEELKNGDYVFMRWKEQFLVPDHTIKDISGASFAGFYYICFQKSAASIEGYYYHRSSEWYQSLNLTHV
Assay: GID4 competitive binding assay (AlphaScreen, GID4/degron peptide PGLW)
Settings: 24 nM GID4, 48 nM biotinylated degron peptide PGLW, 4° C., read-out: IC50 (Inhibition of GID4/Degron binding by test compounds)
Procedure, shortened: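 Displacement of biotin-tagged degron tetrapeptide PGLW (48 nM) from C-terminally 6His-tagged GID4 124-289 (24 nM) read by AlphaScreen proximity signal. Compound incubation 2 h, then beads 1 h, all at 4 °C, pH 7.5, 2% DMSO final; background-corrected inhibition fitted with variable slope for IC50.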

| pIC50 | Structure (SMILES) |
| --- | --- |
| < 5.30 | Brc1ccccc1C1CN(c2cc(NC3CC3)ncn2)CCN1 (stereo not shown) [Compound 79, 6-(3-(2-bromophenyl)piperazin-1-yl)-N-cyclopropylpyrimidin-4-amine] |
| 5.30 to 6.30 | CC(C)c1cc(N2CCNC(c3cc(C(=O)NCCN(C)C)ccc3Br)C2)nc(N)n1 (single isomer, unassigned) [Compound 20, R or S-3-(4-(2-amino-6-isopropylpyrimidin-4-yl)piperazin-2-yl)-4-bromo-N-(2-(dimethylamino)ethyl)benzamide] |
| 5.30 to 6.30 | CN(C)CCCNC(=O)c1ccc2c(-c3ccc4ccnc(N)c4c3)c[nH]c2c1 [Compound 359, 3-(1-aminoisoquinolin-7-yl)-N-(3-(dimethylamino)propyl)-1H-indole-6-carboxamide] |
| > 6.30 | CN(C)CCCNC(=O)c1ccc(-c2cc(O)c3ncccc3c2)cn1 [Compound 295, N-(3-(dimethylamino)propyl)-5-(8-hydroxyquinolin-6-yl)picolinamide] |
| < 5.30 | CC(C)c1cc(N2CCC(O)(c3ccccc3Br)C2)nc(N)n1 (stereo not shown) [Compound 231, 1-(2-amino-6-isopropylpyrimidin-4-yl)-3-(2-bromophenyl)pyrrolidin-3-ol] |
| 5.30 to 6.30 | CC(C)c1nc(N)cc(N2CCOC(c3ccccc3Br)C2)n1 (single isomer, unassigned) [Compound 73, (R/S)-6-(2-(2-bromophenyl)morpholino)-2-isopropylpyrimidin-4-amine] |
| 5.30 to 6.30 | CN(C)CCCNC(=O)c1ccc(-c2cc(O)c3ncccc3c2)c(F)c1Cl [Compound 310, 2-chloro-N-(3-(dimethylamino)propyl)-3-fluoro-4-(8-hydroxyquinolin-6-yl)benzamide] |
| > 6.30 | Nc1cc(N2CCOC(c3ccccc3C(F)(F)F)C2)nc(N)n1 (stereo not shown) [Compound 29, 6-(2-(2-(trifluoromethyl)phenyl)morpholino)pyrimidine-2,4-diamine] |
| < 5.30 | CNc1nc(C)cc(Nc2cccc(-c3cnccn3)c2)n1 [Compound 190, N2,6-dimethyl-N4-(3-(pyrazin-2-yl)phenyl)pyrimidine-2,4-diamine] |
| < 5.30 | CC1CNCCN1c1cc(-c2ccnn2C)c2ccnc(-c3ccn[nH]3)c2n1 (stereo not shown) [Compound 363, 4-(1-methyl-1H-pyrazol-5-yl)-2-(2-methylpiperazin-1-yl)-8-(1H-pyrazol-5-yl)-1,7-naphthyridine] |
| 5.30 to 6.30 | O=C(c1cccc(-c2cc(O)c3ncccc3c2)c1)N1CCCC1 [Compound 293, (3-(8-hydroxyquinolin-6-yl)phenyl)(pyrrolidin-1-yl)methanone] |
| > 6.30 | CC(C)c1cc(N2CCNC(c3ccccc3Br)C2)nc(N)n1 (stereo not shown) [Compound 183, 4-(3-(2-bromophenyl)piperazin-1-yl)-6-isopropylpyrimidin-2-amine] |
| > 6.30 | Nc1cc(N2CCNC(c3ccccc3Br)C2)nc(N)n1 (stereo not shown) [Compound 172, 6-(3-(2-bromophenyl)piperazin-1-yl)pyrimidine-2,4-diamine] |
| < 5.30 | Nc1nc(NC2CC2)nc(N2CCN[C@H](c3ccccc3Br)C2)n1 (stereo in doubt) [Compound 64, (R/S)-6-(3-(2-bromophenyl)piperazin-1-yl)-N2-cyclopropyl-1,3,5-triazine-2,4-diamine] |
| 5.30 to 6.30 | CN(C)CCCNC(=O)c1ccc(-c2cc(O)c3ncccc3c2)c(Cl)c1 [Compound 317, 3-chloro-N-(3-(dimethylamino)propyl)-4-(8-hydroxyquinolin-6-yl)benzamide] |
| < 5.30 | CC(C)c1cc(NCCc2c[nH]c3ccccc23)nc(N)n1 [Compound 203, N4-(2-(1H-indol-3-yl)ethyl)-6-isopropylpyrimidine-2,4-diamine] |
| 5.30 to 6.30 | CNc1nc(N)cc(N2CCCC(c3cnc4ccccn34)C2)n1 (racemic) [Compound 117, (S/R)-6-(3-(imidazo[1,2-a]pyridin-3-yl)piperidin-1-yl)-N2-methylpyrimidine-2,4-diamine] |
| < 5.30 | Brc1ccccc1[C@H]1CN(c2ccnc3[nH]cnc23)CCN1 (racemic) [Compound 34, (S/R)-7-(3-(2-bromophenyl)piperazin-1-yl)-3H-imidazo[4,5-b]pyridine] |
| < 5.30 | NC(=O)CCC1CCCN(c2nc(N)nc3c2CSC3)C1 (stereo not shown) [Compound 201, 3-(1-(2-amino-5,7-dihydrothieno[3,4-d]pyrimidin-4-yl)piperidin-3-yl)propanamide] |
| > 6.30 | CN(C)CCCNC(=O)c1cnc(-c2cc(O)c3ncccc3c2)cn1 [Compound 276, N-(3-(dimethylamino)propyl)-5-(8-hydroxyquinolin-6-yl)pyrazine-2-carboxamide] |

| pIC50 | Structure (SMILES) |
| --- | --- |
| > 6.30 | Nc1cc(N2CCN[C@@H](c3cc(C(F)(F)F)ccc3Br)C2)nc(N)n1 (racemic) [Compound 12, (S/R)-6-(3-(2-bromo-5-(trifluoromethyl)phenyl)piperazin-1-yl)pyrimidine-2,4-diamine] |
| < 5.30 | Nc1nc2c(c(N3CCCC(c4ccn[nH]4)C3)n1)COCC2 (stereo not shown) [Compound 196, 4-(3-(1H-pyrazol-5-yl)piperidin-1-yl)-7,8-dihydro-5H-pyrano[4,3-d]pyrimidin-2-amine] |
| < 5.30 | CN(C)CCCNC(=O)c1cccc(-c2ccc3ccnc(N)c3n2)c1 [Compound 340, 3-(8-amino-1,7-naphthyridin-2-yl)-N-(3-(dimethylamino)propyl)benzamide] |
| > 6.30 | CC(C)c1cc(N2CCNC(c3cnn4ccccc34)C2)nc(N)n1 (stereo not shown) [Compound 22, 4-isopropyl-6-(3-(pyrazolo[1,5-a]pyridin-3-yl)piperazin-1-yl)pyrimidin-2-amine] |
| > 6.30 | CN1CCC(CNC(=O)c2ccc(-c3cc(O)c4ncccc4c3)cc2)CC1 [Compound 300, 4-(8-hydroxyquinolin-6-yl)-N-((1-methylpiperidin-4-yl)methyl)benzamide] |
| > 6.30 | CN(C)CCCNC(=O)c1ncc(-c2cc(O)c3ncccc3c2)cn1 [Compound 271, N-(3-(dimethylamino)propyl)-5-(8-hydroxyquinolin-6-yl)pyrimidine-2-carboxamide] |
| > 6.30 | CC(C)c1cc(N2CCNC(c3cc(N4CC(CO)C4)ccc3Br)C2)nc(N)n1 (single isomer, unassigned) [Compound 30, (R/S)-(1-(3-(4-(2-amino-6-isopropylpyrimidin-4-yl)piperazin-2-yl)-4-bromophenyl)azetidin-3-yl)methanol] |
| < 5.30 | Nc1nc(NC2CC2)cc(N2CCO[C@H](c3ccccc3Br)C2)n1 (stereo in doubt) [Compound 97, (R/S)-6-(2-(2-bromophenyl)morpholino)-N4-cyclopropylpyrimidine-2,4-diamine] |
| > 6.30 | Nc1cc(N2CCNC(c3cc(N4CCC(CO)CC4)ccc3Br)C2)nc(N)n1 (stereo not shown) [Compound 33, (1-(4-bromo-3-(4-(2,6-diaminopyrimidin-4-yl)piperazin-2-yl)phenyl)piperidin-4-yl)methanol] |
| < 5.30 | CC(C)c1cc(N2CC[C@@H](F)[C@@H](c3ncn4ccccc34)C2)nc(N)n1 (racemic) [Compound 229, 4-((3R,4R)-4-fluoro-3-(imidazo[1,5-a]pyridin-1-yl)piperidin-1-yl)-6-isopropylpyrimidin-2-amine] |
| > 6.30 | CC(C)c1cc(N2CCCC(c3cnc4ccccn34)C2)c2cc[nH]c2n1 (stereo not shown) [Compound 370, 3-(1-(6-isopropyl-1H-pyrrolo[2,3-b]pyridin-4-yl)piperidin-3-yl)imidazo[1,2-a]pyridine] |
| 5.30 to 6.30 | Cc1cc(-c2cc(O)c3ncccc3c2)ccc1C(=O)NCCCN(C)C [Compound 311, N-(3-(dimethylamino)propyl)-4-(8-hydroxyquinolin-6-yl)-2-methylbenzamide] |
| > 6.30 | CC(C)c1cc(N2CCN[C@H](c3cnc4ccccn34)C2)c2nc[nH]c2n1 (stereo in doubt) [Compound 369, (S/R)-7-(3-(imidazo[1,2-a]pyridin-3-yl)piperazin-1-yl)-5-isopropyl-3H-imidazo[4,5-b]pyridine] |
| > 6.30 | Nc1cc(N2CCO[C@@](CO)(c3ccccc3Br)C2)nc(N)n1 (stereo in doubt) [Compound 37, (S/R)-(2-(2-bromophenyl)-4-(2,6-diaminopyrimidin-4-yl)morpholin-2-yl)methanol] |
| 5.30 to 6.30 | CC(C)c1cc(N2CCCC(c3ncc4ccccn34)C2)nc(N)n1 (stereo not shown) [Compound 244, 4-(3-(imidazo[1,5-a]pyridin-3-yl)piperidin-1-yl)-6-isopropylpyrimidin-2-amine] |
| 5.30 to 6.30 | CCCNC(=O)c1ccc(-c2cc(O)c3ncccc3c2)cc1 [Compound 302, 4-(8-hydroxyquinolin-6-yl)-N-propylbenzamide] |
| 5.30 to 6.30 | c1ccn2c(C3CCCN(c4ncnc5c4CCCN5)C3)cnc2c1 (stereo not shown) [Compound 58, 4-(3-(imidazo[1,2-a]pyridin-3-yl)piperidin-1-yl)-5,6,7,8-tetrahydropyrido[2,3-d]pyrimidine] |
| 5.30 to 6.30 | CN(C)CCCNC(=O)c1c(F)cc(-c2cc(O)c3ncccc3c2)cc1F [Compound 314, N-(3-(dimethylamino)propyl)-2,6-difluoro-4-(8-hydroxyquinolin-6-yl)benzamide] |
| 5.30 to 6.30 | CC(C)c1cc(N2CCCC(c3n[nH]c4ccccc34)C2)nc(N)n1 (stereo not shown) [Compound 251, 4-(3-(1H-indazol-3-yl)piperidin-1-yl)-6-isopropylpyrimidin-2-amine] |
| > 6.30 | CN(C)CCNC(=O)c1ccc(-c2cc(O)c3ncccc3c2)cc1 [Compound 299, N-(2-(dimethylamino)ethyl)-4-(8-hydroxyquinolin-6-yl)benzamide] |
